Measured values reported in patent US8192962B2, “Processes for detecting toxic substances” (Daikin Industries, Ltd., priority 2001, dated 2012).

Test system: Metabolism protein genes
Experiment: DNA chip mRNA expression in yeast, metabolism protein genes (Table 7)
Assay type: cell-based, Saccharomyces cerevisiae S288C
Procedure, shortened: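 First, S288C yeast grown in YPD at 25° C. are dosed in log phase with one toxicant (growth-inhibiting, not lethal) for 2 h. Next, total RNA is extracted and poly(A) mRNA isolated and reverse-transcribed with Cy3/Cy5-dUTP. Finally, whole-genome chip fluorescence is read relative to unexposed cells.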

Substance: Na2As [(1)]
- The level of expressed mRNA in the presence of chemical substance/The level of expressed mRNA in the absence of chemical substance (yeast gene YJR155W): 10.6
- The level of expressed mRNA in the presence of chemical substance/The level of expressed mRNA in the absence of chemical substance (yeast gene YKL035W): 1.0
- level of expressed mRNA in the presence/in the absence of chemical substance (yeast gene YKL060C): 1.6
- The level of expressed mRNA in the presence of chemical substance/The level of expressed mRNA in the absence of chemical substance (yeast gene YKL091C): 1.2
- The level of expressed mRNA in the presence of chemical substance/The level of expressed mRNA in the absence of chemical substance (yeast gene YKL104C): 1.0
- level of expressed mRNA in the presence/in the absence of chemical substance (yeast gene YKL148C): 0.9
- The level of expressed mRNA in the presence of chemical substance/The level of expressed mRNA in the absence of chemical substance (yeast gene YKL152C): 1.3
- level of expressed mRNA in the presence/in the absence of chemical substance (yeast gene YKL157W): 0.7
- The level of expressed mRNA in the presence of chemical substance/The level of expressed mRNA in the absence of chemical substance (yeast gene YKL213C): 0.9
- The level of expressed mRNA in the presence of chemical substance/The level of expressed mRNA in the absence of chemical substance (yeast gene YKL215C): 0.6
- level of expressed mRNA in the presence/in the absence of chemical substance (yeast gene YKR034W): 0.9
- The level of expressed mRNA in the presence of chemical substance/The level of expressed mRNA in the absence of chemical substance (yeast gene YLL058W): 1.0
- level of expressed mRNA in the presence/in the absence of chemical substance (yeast gene YLR006C): 0.7
- level of expressed mRNA in the presence/in the absence of chemical substance (yeast gene YLR044C): 0.8
- level of expressed mRNA in the presence/in the absence of chemical substance (yeast gene YLR056W): 1.0
- level of expressed mRNA in the presence/in the absence of chemical substance (yeast gene YLR058C): 0.9
- level of expressed mRNA in the presence/in the absence of chemical substance (yeast gene YLR081W): 1.3
- level of expressed mRNA in the presence/in the absence of chemical substance (yeast gene YLR089C): 0.9
- The level of expressed mRNA in the presence of chemical substance/The level of expressed mRNA in the absence of chemical substance (yeast gene YLR180W): 1.3
- The level of expressed mRNA in the presence of chemical substance/The level of expressed mRNA in the absence of chemical substance (yeast gene YLR273C): 1.4
- level of expressed mRNA in the presence/in the absence of chemical substance (yeast gene YLR284C): 0.9
- The level of expressed mRNA in the presence of chemical substance/The level of expressed mRNA in the absence of chemical substance (yeast gene YLR299W): 1.2
- The level of expressed mRNA in the presence of chemical substance/The level of expressed mRNA in the absence of chemical substance (yeast gene YLR300W): 0.9
- level of expressed mRNA in the presence/in the absence of chemical substance (yeast gene YLR304C): 0.7
- The level of expressed mRNA in the presence of chemical substance/The level of expressed mRNA in the absence of chemical substance (yeast gene YLR307W): 0.9
- The level of expressed mRNA in the presence of chemical substance/The level of expressed mRNA in the absence of chemical substance (yeast gene YLR348C): 1.1
- level of expressed mRNA in the presence/in the absence of chemical substance (yeast gene YLR354C): 1.1
- level of expressed mRNA in the presence/in the absence of chemical substance (yeast gene YLR372W): 0.7
- level of expressed mRNA in the presence/in the absence of chemical substance (yeast gene YML022W): 0.9
- The level of expressed mRNA in the presence of chemical substance/The level of expressed mRNA in the absence of chemical substance (yeast gene YML054C): 1.5
- The level of expressed mRNA in the presence of chemical substance/The level of expressed mRNA in the absence of chemical substance (yeast gene YML070W): 0.9
- The level of expressed mRNA in the presence of chemical substance/The level of expressed mRNA in the absence of chemical substance (yeast gene YML100W): 0.8
- The level of expressed mRNA in the presence of chemical substance/The level of expressed mRNA in the absence of chemical substance (yeast gene YMR008C): 0.7
- level of expressed mRNA in the presence/in the absence of chemical substance (yeast gene YMR011W): 1.3
- level of expressed mRNA in the presence/in the absence of chemical substance (yeast gene YMR015C): 0.7
- The level of expressed mRNA in the presence of chemical substance/The level of expressed mRNA in the absence of chemical substance (yeast gene YMR020W): 1.3
- level of expressed mRNA in the presence/in the absence of chemical substance (yeast gene YMR083W): 1.4
- The level of expressed mRNA in the presence of chemical substance/The level of expressed mRNA in the absence of chemical substance (yeast gene YMR105C): 1.9
- The level of expressed mRNA in the presence of chemical substance/The level of expressed mRNA in the absence of chemical substance (yeast gene YMR189W): 0.7
- level of expressed mRNA in the presence/in the absence of chemical substance (yeast gene YMR205C): 0.5
- level of expressed mRNA in the presence/in the absence of chemical substance (yeast gene YMR261C): 0.7
- The level of expressed mRNA in the presence of chemical substance/The level of expressed mRNA in the absence of chemical substance (yeast gene YMR271C): 1.6
- The level of expressed mRNA in the presence of chemical substance/The level of expressed mRNA in the absence of chemical substance (yeast gene YMR296C): 0.6
- level of expressed mRNA in the presence/in the absence of chemical substance (yeast gene YMR323W): 0.8
- The level of expressed mRNA in the presence of chemical substance/The level of expressed mRNA in the absence of chemical substance (yeast gene YNL012W): 1.3
- level of expressed mRNA in the presence/in the absence of chemical substance (yeast gene YNL025C): 0.9
- The level of expressed mRNA in the presence of chemical substance/The level of expressed mRNA in the absence of chemical substance (yeast gene YNL045W): 0.8
- The level of expressed mRNA in the presence of chemical substance/The level of expressed mRNA in the absence of chemical substance (yeast gene YNL104C): 1.1
- The level of expressed mRNA in the presence of chemical substance/The level of expressed mRNA in the absence of chemical substance (yeast gene YNL106C): 1.0
- The level of expressed mRNA in the presence of chemical substance/The level of expressed mRNA in the absence of chemical substance (yeast gene YNL169C): 0.7
- level of expressed mRNA in the presence/in the absence of chemical substance (yeast gene YNL192W): 1.1
- The level of expressed mRNA in the presence of chemical substance/The level of expressed mRNA in the absence of chemical substance (yeast gene YNL231C): 1.5
- The level of expressed mRNA in the presence of chemical substance/The level of expressed mRNA in the absence of chemical substance (yeast gene YNL322C): 0.8
- The level of expressed mRNA in the presence of chemical substance/The level of expressed mRNA in the absence of chemical substance (yeast gene YNL331C): 8.6
- The level of expressed mRNA in the presence of chemical substance/The level of expressed mRNA in the absence of chemical substance (yeast gene YNL332W): 1.1
- The level of expressed mRNA in the presence of chemical substance/The level of expressed mRNA in the absence of chemical substance (yeast gene YNR019W): 1.0
- The level of expressed mRNA in the presence of chemical substance/The level of expressed mRNA in the absence of chemical substance (yeast gene YNR033W): 0.6
- The level of expressed mRNA in the presence of chemical substance/The level of expressed mRNA in the absence of chemical substance (yeast gene YNR059W): 1.1
- The level of expressed mRNA in the presence of chemical substance/The level of expressed mRNA in the absence of chemical substance (yeast gene YOL058W): 0.8
- level of expressed mRNA in the presence/in the absence of chemical substance (yeast gene YOL086C): 1.1
- level of expressed mRNA in the presence/in the absence of chemical substance (yeast gene YOL108C): 1.4
- level of expressed mRNA in the presence/in the absence of chemical substance (yeast gene YOL116W): 1.1
- The level of expressed mRNA in the presence of chemical substance/The level of expressed mRNA in the absence of chemical substance (yeast gene YOL126C): 1.0
- The level of expressed mRNA in the presence of chemical substance/The level of expressed mRNA in the absence of chemical substance (yeast gene YOL153C): 1.0
- level of expressed mRNA in the presence/in the absence of chemical substance (yeast gene YOL156W): 1.1
- The level of expressed mRNA in the presence of chemical substance/The level of expressed mRNA in the absence of chemical substance (yeast gene YOL165C): 10.1
- level of expressed mRNA in the presence/in the absence of chemical substance (yeast gene YOR002W): 0.8
- level of expressed mRNA in the presence/in the absence of chemical substance (yeast gene YOR085W): 0.7
- The level of expressed mRNA in the presence of chemical substance/The level of expressed mRNA in the absence of chemical substance (yeast gene YOR099W): 0.8
- level of expressed mRNA in the presence/in the absence of chemical substance (yeast gene YOR103C): 1.1
- level of expressed mRNA in the presence/in the absence of chemical substance (yeast gene YOR108W): 0.8
- level of expressed mRNA in the presence/in the absence of chemical substance (yeast gene YOR128C): 0.9
- The level of expressed mRNA in the presence of chemical substance/The level of expressed mRNA in the absence of chemical substance (yeast gene YOR130C): 0.8
- level of expressed mRNA in the presence/in the absence of chemical substance (yeast gene YOR142W): 1.0
- level of expressed mRNA in the presence/in the absence of chemical substance (yeast gene YOR176W): 0.7
- level of expressed mRNA in the presence/in the absence of chemical substance (yeast gene YOR178C): 1.4
- level of expressed mRNA in the presence/in the absence of chemical substance (yeast gene YOR251C): 1.1
- The level of expressed mRNA in the presence of chemical substance/The level of expressed mRNA in the absence of chemical substance (yeast gene YOR336W): 0.7
- The level of expressed mRNA in the presence of chemical substance/The level of expressed mRNA in the absence of chemical substance (yeast gene YOR347C): 0.9
- level of expressed mRNA in the presence/in the absence of chemical substance (yeast gene YOR348C): 1.1
- The level of expressed mRNA in the presence of chemical substance/The level of expressed mRNA in the absence of chemical substance (yeast gene YPL017C): 1.0
- level of expressed mRNA in the presence/in the absence of chemical substance (yeast gene YPL028W): 0.7
- level of expressed mRNA in the presence/in the absence of chemical substance (yeast gene YPL057C): 1.9
- level of expressed mRNA in the presence/in the absence of chemical substance (yeast gene YPL135W): 0.9
- level of expressed mRNA in the presence/in the absence of chemical substance (yeast gene YPL148C): 1.2
- The level of expressed mRNA in the presence of chemical substance/The level of expressed mRNA in the absence of chemical substance (yeast gene YPR026W): 0.9
- level of expressed mRNA in the presence/in the absence of chemical substance (yeast gene YPR113W): 1.1
- level of expressed mRNA in the presence/in the absence of chemical substance (yeast gene YPR165W): 1.3
- The level of expressed mRNA in the presence of chemical substance/The level of expressed mRNA in the absence of chemical substance (yeast gene YPR167C): 5.3
- level of expressed mRNA in the presence/in the absence of chemical substance (yeast gene YPR183W): 0.9
